# Results: ChEMBL document CHEMBL5236604, “Cage hydrocarbons as linkers in dimeric drug design: Case studies with trimethoprim and tedizolid” (2023)
# Activity calls are given as the source filed them. The calls are words filed in the database; no cut-off is given here.
# Experiments:
# [1] = tested on: Staphylococcus aureus; assay: Antibacterial activity against trimethoprim resistant Staphylococcus aureus assessed as inhibition of bacterial growth; type: functional
# [2] = tested on: Acinetobacter baumannii; assay: Antibacterial activity against trimethoprim sensitive Acinetobacter baumannii assessed as inhibition of bacterial growth; type: functional
# [3] = tested on: Enterococcus faecium; assay: Antibacterial activity against trimethoprim resistant Enterococcus faecium assessed as inhibition of bacterial growth; type: functional
# [4] = tested on: Staphylococcus aureus; assay: Antibacterial activity against trimethoprim sensitive Staphylococcus aureus assessed as inhibition of bacterial growth; type: functional
# [5] = tested on: Enterococcus faecium; assay: Antibacterial activity against trimethoprim sensitive Enterococcus faecium assessed as inhibition of bacterial growth; type: functional
# [6] = tested on: Enterococcus faecium; assay: Antibacterial activity against Enterococcus faecium; type: functional, organism-based
# [7] = tested on: Staphylococcus aureus; assay: Antibacterial activity against Staphylococcus aureus; type: functional, organism-based
# [8] = tested on: Acinetobacter baumannii; assay: Antibacterial activity against trimethoprim resistant Acinetobacter baumannii assessed as inhibition of bacterial growth; type: functional
SMILES,MIC [1],MIC [2],MIC [3],MIC [4],MIC [5],Activity [6],Activity [7],MIC [8]
COc1cc(Cc2cnc(N)nc2N)cc(OC)c1O [4-HYDROXYTRIMETHOPRIM],> 25 µM,> 100 µM,60 µM,12.5 µM,3.12 µM,,,
COc1cc(Cc2cnc(N)nc2N)cc(OC)c1OC(=O)C12CCC(C(=O)Oc3c(OC)cc(Cc4cnc(N)nc4N)cc3OC)(CC1)CC2,,> 100 µM,> 100 µM,> 100 µM,3.12 µM,,,
CC(C)(C)[Si](C)(C)OC[C@H]1CN(c2ccc(O)c(F)c2)C(=O)O1,,,,,,inactive,inactive,
COc1cc(Cc2cnc(N)nc2N)cc(OC)c1OC [TRIMETHOPRIM],12.5 µM,6.25 µM,100 µM,6.25 µM,0.78 µM,,,> 400 µM
COc1cc(Cc2cnc(N)nc2N)cc(OC)c1OC(=O)C12CC(C(=O)Oc3c(OC)cc(Cc4cnc(N)nc4N)cc3OC)(C1)C2,> 100 µM,> 100 µM,> 50 µM,25 µM,1.56 µM,,,
COc1cc(Cc2cnc(N)nc2N)cc(OC)c1OC(=O)C12CC3CC(C1)CC(C(=O)Oc1c(OC)cc(Cc4cnc(N)nc4N)cc1OC)(C3)C2,> 25 µM,> 100 µM,50 µM,12.5 µM,6.25 µM,,,
